{"source": "patent US11524968B2", "about": "“Heterocyclic compound as a protein kinase inhibitor” (HK inno.N Corporation, priority 2017, dated 2022)", "note": "pIC50: −log10 of the molar value.", "data": [{"target": "JAK1 (Homo sapiens (Human), UniProt P23458)", "sequence (P23458 whole entry)": "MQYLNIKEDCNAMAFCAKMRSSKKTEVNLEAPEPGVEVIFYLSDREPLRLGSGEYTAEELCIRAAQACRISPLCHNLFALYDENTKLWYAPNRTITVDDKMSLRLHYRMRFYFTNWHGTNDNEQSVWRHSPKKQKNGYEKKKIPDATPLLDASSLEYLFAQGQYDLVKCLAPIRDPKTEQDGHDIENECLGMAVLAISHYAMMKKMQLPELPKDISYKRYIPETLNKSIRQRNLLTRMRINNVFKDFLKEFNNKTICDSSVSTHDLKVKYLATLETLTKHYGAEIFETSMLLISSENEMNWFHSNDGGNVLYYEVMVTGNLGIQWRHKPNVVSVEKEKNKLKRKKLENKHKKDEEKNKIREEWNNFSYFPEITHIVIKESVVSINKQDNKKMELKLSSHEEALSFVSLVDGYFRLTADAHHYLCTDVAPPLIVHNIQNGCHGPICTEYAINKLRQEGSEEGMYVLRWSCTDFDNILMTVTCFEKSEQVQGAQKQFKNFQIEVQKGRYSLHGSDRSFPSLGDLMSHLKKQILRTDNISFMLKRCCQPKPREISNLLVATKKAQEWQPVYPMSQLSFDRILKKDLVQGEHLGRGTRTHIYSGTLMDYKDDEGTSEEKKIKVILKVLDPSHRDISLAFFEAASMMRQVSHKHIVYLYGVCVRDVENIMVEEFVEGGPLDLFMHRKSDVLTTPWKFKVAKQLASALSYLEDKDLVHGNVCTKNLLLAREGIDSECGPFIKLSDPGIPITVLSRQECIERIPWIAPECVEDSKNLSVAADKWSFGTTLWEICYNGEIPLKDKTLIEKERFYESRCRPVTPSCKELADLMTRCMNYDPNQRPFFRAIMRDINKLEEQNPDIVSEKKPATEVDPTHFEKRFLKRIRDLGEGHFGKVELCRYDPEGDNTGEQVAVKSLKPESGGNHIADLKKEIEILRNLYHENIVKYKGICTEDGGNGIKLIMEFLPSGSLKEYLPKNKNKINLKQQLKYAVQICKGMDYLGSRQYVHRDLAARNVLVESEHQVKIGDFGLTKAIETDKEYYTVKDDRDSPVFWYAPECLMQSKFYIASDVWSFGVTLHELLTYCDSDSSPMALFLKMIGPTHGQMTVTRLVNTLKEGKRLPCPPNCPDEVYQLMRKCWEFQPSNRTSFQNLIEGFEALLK", "experiment": "Analysis of JAK1 activity inhibition ability (ADP-Glo Kinase Assay)", "type": "biochemical", "settings": "not given", "procedure,_shortened": "(§1)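 ADP-Glo luminescence read-out of ADP production, with IC50 taken as the concentration halving JAK1 activity relative to control. Enzyme was incubated 40 min at 30 °C with compound, IRS-itide (40 ng/mL) and ATP (250 uM), concentrations as prepared in pH 7.5 Tris-HCl/MgCl2/BSA/DTT buffer.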", "values": [{"smiles": "O=C1CCN(C(=O)Cc2ccc(-c3cc(NC(=O)C4CC4)nc4[nH]ccc34)cc2)CC1", "note": "[Example 549, N-(4-(4-(2-oxo-2-(4-oxopiperidin-1-yl)ethyl)phenyl)-1H-pyrrolo[2,3-b]pyridin-6-yl)cyclopropanecarboxamide]", "pIC50": "6.70 to 7.70"}]}, {"target": "JAK1 (Homo sapiens (Human), UniProt P23458)", "experiment": "Analysis of JAK1 activity inhibition ability (ADP-Glo Kinase Assay)", "type": "biochemical", "settings": "JAK1 enzyme, ADP-Glo luminescence, ATP 250 uM, IRS-itide substrate, 30° C. 40 minutes; read-out: IC50", "procedure,_shortened": "as §1", "values": [{"smiles": "N#CCNC(=O)c1ccc(-c2cc(NC(=O)C3CC3)nc3[nH]ccc23)cc1", "note": "[Example 523, N-(cyanomethyl)-4-(6-(cyclopropanecarboxamido)-1H-pyrrolo[2,3-b]pyridin-4-yl)benzamide]", "pIC50": "> 7.70"}, {"smiles": "O=C(NCC(F)(F)F)c1ccc(-c2cc(NC(=O)C3CC3)nc3[nH]ccc23)cc1", "note": "[Example 524, 4-(6-(cyclopropanecarboxamido)-1H-pyrrolo[2,3-b]pyridin-4-yl)-N-(2,2,2-trifluoroethyl)benzamide]", "pIC50": "> 7.70"}, {"smiles": "Cc1cc(C(=O)NCC(F)(F)F)ccc1-c1cc(NC(=O)C2CC2)nc2[nH]ccc12", "note": "[Example 525, 4-(6-(cyclopropanecarboxamido)-1H-pyrrolo[2,3-b]pyridin-4-yl)-3-methyl-N-(2,2,2-trifluoroethyl)benzamide]", "pIC50": "6.70 to 7.70"}, {"smiles": "Cc1cc(C(=O)NCC#N)ccc1-c1cc(NC(=O)C2CC2)nc2[nH]ccc12", "note": "[Example 526, N-(cyanomethyl)-4-(6-(cyclopropanecarboxamido)-1H-pyrrolo[2,3-b]pyridin-4-yl)-3-methylbenzamide]", "pIC50": "6.70 to 7.70"}, {"smiles": "Cc1cc(C(=O)N(C)CC#N)ccc1-c1cc(NC(=O)C2CC2)nc2[nH]ccc12", "note": "[Example 527, N-(cyanomethyl)-4-(6-(cyclopropanecarboxamido)-1H-pyrrolo[2,3-b]pyridin-4-yl)-N,3-dimethylbenzamide]", "pIC50": "< 6.70"}, {"smiles": "N#CCNC(=O)c1ccc(-c2cc(NC(=O)C3CC3)nc3[nH]ccc23)cc1F", "note": "[Example 528, N-(cyanomethyl)-4-(6-(cyclopropanecarboxamido)-1H-pyrrolo[2,3-b]pyridin-4-yl)-2-fluorobenzamide]", "pIC50": "6.70 to 7.70"}, {"smiles": "N#CCNC(=O)c1c(F)cc(-c2cc(NC(=O)C3CC3)nc3[nH]ccc23)cc1F", "note": "[Example 529, N-(cyanomethyl)-4-(6-(cyclopropanecarboxamido)-1H-pyrrolo[2,3-b]pyridin-4-yl)-2,6-difluorobenzamide]", "pIC50": "6.70 to 7.70"}, {"smiles": "N#CCNC(=O)C1CC=C(c2cc(NC(=O)C3CC3)nc3[nH]ccc23)CC1", "note": "(stereo not shown) [Example 530, N-(cyanomethyl)-4-(6-(cyclopropanecarboxamido)-1H-pyrrolo[2,3-b]pyridin-4-yl)cyclohex-3-ene-1-carboxamide]", "pIC50": "6.70 to 7.70"}, {"smiles": "O=C(NCC(F)(F)F)C1CC=C(c2cc(NC(=O)C3CC3)nc3[nH]ccc23)CC1", "note": "(stereo not shown) [Example 531, 4-(6-(cyclopropanecarboxamido)-1H-pyrrolo[2,3-b]pyridin-4-yl)-N-(2,2,2-trifluoroethyl)cyclohex-3-ene-1-carboxamide]", "pIC50": "6.70 to 7.70"}, {"smiles": "N#CCCNC(=O)C1CC=C(c2cc(NC(=O)C3CC3)nc3[nH]ccc23)CC1", "note": "(stereo not shown) [Example 532, N-(2-cyanoethyl)-4-(6-(cyclopropanecarboxamido)-1H-pyrrolo[2,3-b]pyridin-4-yl)cyclohex-3-ene-1-carboxamide]", "pIC50": "6.70 to 7.70"}, {"smiles": "CNS(=O)(=O)Cc1ccc(-c2cc(NC(=O)C3CC3)nc3[nH]ccc23)cc1", "note": "[Example 533, N-(4-(4-((N-methylsulfamoyl)methyl)phenyl)-1H-pyrrolo[2,3-b]pyridin-6-yl)cyclopropanecarboxamide]", "pIC50": "6.70 to 7.70"}, {"smiles": "O=C(Nc1cc(-c2ccc(CS(=O)(=O)N3CCOCC3)cc2)c2cc[nH]c2n1)C1CC1", "note": "[Example 534, N-(4-(4-((morpholinosulfonyl)methyl)phenyl)-1H-pyrrolo[2,3-b]pyridin-6-yl)cyclopropanecarboxamide]", "pIC50": "< 6.70"}, {"smiles": "O=C(Nc1cc(-c2ccc(CC(=O)N3CCS(=O)(=O)CC3)cc2)c2cc[nH]c2n1)C1CC1", "note": "[Example 535, N-(4-(4-(2-(1,1-dioxidothiomorpholino)-2-oxoethyl)phenyl)-1H-pyrrolo[2,3-b]pyridin-6-yl)cyclopropanecarboxamide]", "pIC50": "6.70 to 7.70"}, {"smiles": "O=C(Nc1cc(-c2ccc(CC(=O)N3CCOCC3)cc2)c2cc[nH]c2n1)C1CC1", "note": "[Example 536, N-(4-(4-(2-morpholino-2-oxoethyl)phenyl)-1H-pyrrolo[2,3-b]pyridin-6-yl)cyclopropanecarboxamide]", "pIC50": "6.70 to 7.70"}, {"smiles": "O=C(Cc1ccc(-c2cc(NC(=O)C3CC3)nc3[nH]ccc23)cc1)NCC(F)(F)F", "note": "[Example 537, N-(4-(4-(2-oxo-2-((2,2,2-trifluoroethyl)amino)ethyl)phenyl)-1H-pyrrolo[2,3-b]pyridin-6-yl)cyclopropanecarboxamide]", "pIC50": "6.70 to 7.70"}, {"smiles": "O=C(Cc1ccc(-c2cc(NC(=O)C3CC3)nc3[nH]ccc23)cc1)NC1CCS(=O)(=O)C1", "note": "(stereo not shown) [Example 538, N-(4-(4-(2-((1,1-dioxidotetrahydrothiophen-3-yl)amino)-2-oxoethyl)phenyl)-1H-pyrrolo[2,3-b]pyridin-6-yl)cyclopropanecarboxamide]", "pIC50": "6.70 to 7.70"}, {"smiles": "CNC(=O)Cc1ccc(-c2cc(NC(=O)C3CC3)nc3[nH]ccc23)cc1", "note": "[Example 539, N-(4-(4-(2-(methylamino)-2-oxoethyl)phenyl)-1H-pyrrolo[2,3-b]pyridin-6-yl)cyclopropanecarboxamide]", "pIC50": "6.70 to 7.70"}, {"smiles": "CN(C)C(=O)Cc1ccc(-c2cc(NC(=O)C3CC3)nc3[nH]ccc23)cc1", "note": "[Example 540, N-(4-(4-(2-(dimethylamino)-2-oxoethyl)phenyl)-1H-pyrrolo[2,3-b]pyridin-6-yl)cyclopropanecarboxamide]", "pIC50": "6.70 to 7.70"}, {"smiles": "CCNC(=O)Cc1ccc(-c2cc(NC(=O)C3CC3)nc3[nH]ccc23)cc1", "note": "[Example 541, N-(4-(4-(2-(ethylamino)-2-oxoethyl)phenyl)-1H-pyrrolo[2,3-b]pyridin-6-yl)cyclopropanecarboxamide]", "pIC50": "6.70 to 7.70"}, {"smiles": "CS(=O)(=O)N1CCN(C(=O)Cc2ccc(-c3cc(NC(=O)C4CC4)nc4[nH]ccc34)cc2)CC1", "note": "[Example 542, N-(4-(4-(2-(4-(methylsulfonyl)piperazin-1-yl)-2-oxoethyl)phenyl)-1H-pyrrolo[2,3-b]pyridin-6-yl)cyclopropanecarboxamide]", "pIC50": "> 7.70"}, {"smiles": "CC(=O)N1CCN(C(=O)Cc2ccc(-c3cc(NC(=O)C4CC4)nc4[nH]ccc34)cc2)CC1", "note": "[Example 543, N-(4-(4-(2-(4-acetylpiperazin-1-yl)-2-oxoethyl)phenyl)-1H-pyrrolo[2,3-b]pyridin-6-yl)cyclopropanecarboxamide]", "pIC50": "< 6.70"}, {"smiles": "O=C(Cc1ccc(-c2cc(NC(=O)C3CC3)nc3[nH]ccc23)cc1)Nc1ccon1", "note": "[Example 544, N-(4-(4-(2-(isoxazol-3-ylamino)-2-oxoethyl)phenyl)-1H-pyrrolo[2,3-b]pyridin-6-yl)cyclopropanecarboxamide]", "pIC50": "6.70 to 7.70"}, {"smiles": "Cc1cc(CC(=O)N2CCS(=O)(=O)CC2)ccc1-c1cc(NC(=O)C2CC2)nc2[nH]ccc12", "note": "[Example 545, N-(4-(4-(2-(1,1-dioxidothiomorpholino)-2-oxoethyl)-2-methylphenyl)-1H-pyrrolo[2,3-b]pyridin-6-yl)cyclopropanecarboxamide]", "pIC50": "6.70 to 7.70"}, {"smiles": "O=C(Nc1cc(-c2ccc(CC(=O)N3CCC3)cc2)c2cc[nH]c2n1)C1CC1", "note": "[Example 546, N-(4-(4-(2-(azetidin-1-yl)-2-oxoethyl)phenyl)-1H-pyrrolo[2,3-b]pyridin-6-yl)cyclopropanecarboxamide]", "pIC50": "6.70 to 7.70"}, {"smiles": "O=C(Nc1cc(-c2ccc(CC(=O)N3CCCC3)cc2)c2cc[nH]c2n1)C1CC1", "note": "[Example 547, N-(4-(4-(2-oxo-2-(pyrrolidin-1-yl)ethyl)phenyl)-1H-pyrrolo[2,3-b]pyridin-6-yl)cyclopropanecarboxamide]", "pIC50": "6.70 to 7.70"}, {"smiles": "N#CC1CCN(C(=O)Cc2ccc(-c3cc(NC(=O)C4CC4)nc4[nH]ccc34)cc2)CC1", "note": "[Example 548, N-(4-(4-(2-(4-cyanopiperidin-1-yl)-2-oxoethyl)phenyl)-1H-pyrrolo[2,3-b]pyridin-6-yl)cyclopropanecarboxamide]", "pIC50": "6.70 to 7.70"}, {"smiles": "CN1CCN(C(=O)Cc2ccc(-c3cc(NC(=O)C4CC4)nc4[nH]ccc34)cc2)CC1", "note": "[Example 550, N-(4-(4-(2-(4-methylpiperazin-1-yl)-2-oxoethyl)phenyl)-1H-pyrrolo[2,3-b]pyridin-6-yl)cyclopropanecarboxamide]", "pIC50": "6.70 to 7.70"}, {"smiles": "CCN1CCN(C(=O)Cc2ccc(-c3cc(NC(=O)C4CC4)nc4[nH]ccc34)cc2)CC1", "note": "[Example 551, N-(4-(4-(2-(4-ethylpiperazin-1-yl)-2-oxoethyl)phenyl)-1H-pyrrolo[2,3-b]pyridin-6-yl)cyclopropanecarboxamide]", "pIC50": "< 6.70"}, {"smiles": "CC(C)N1CCN(C(=O)Cc2ccc(-c3cc(NC(=O)C4CC4)nc4[nH]ccc34)cc2)CC1", "note": "[Example 552, N-(4-(4-(2-(4-isopropylpiperazin-1-yl)-2-oxoethyl)phenyl)-1H-pyrrolo[2,3-b]pyridin-6-yl)cyclopropanecarboxamide]", "pIC50": "< 6.70"}, {"smiles": "N#CCCNC(=O)Cc1ccc(-c2cc(NC(=O)C3CC3)nc3[nH]ccc23)cc1", "note": "[Example 553, N-(4-(4-(2-((2-cyanoethyl)amino)-2-oxoethyl)phenyl)-1H-pyrrolo[2,3-b]pyridin-6-yl)cyclopropanecarboxamide]", "pIC50": "6.70 to 7.70"}, {"smiles": "CC(C)(C)OC(=O)N1CCN(C(=O)Cc2ccc(-c3cc(NC(=O)C4CC4)nc4[nH]ccc34)cc2)CC1", "note": "[Example 554, tert-butyl 4-(2-(4-(6-(cyclopropanecarboxamido)-1H-pyrrolo[2,3-b]pyridin-4-yl)phenyl)acetyl)piperazine-1-carboxylate]", "pIC50": "6.70 to 7.70"}, {"smiles": "CC(C)(C)OC(=O)N1CCCC(NC(=O)Cc2ccc(-c3cc(NC(=O)C4CC4)nc4[nH]ccc34)cc2)C1", "note": "(stereo not shown) [Example 555, tert-butyl 3-(2-(4-(6-(cyclopropanecarboxamido)-1H-pyrrolo[2,3-b]pyridin-4-yl)phenyl)acetamido)piperidine-1-carboxylate]", "pIC50": "< 6.70"}, {"smiles": "Cn1ccc(NC(=O)Cc2ccc(-c3cc(NC(=O)C4CC4)nc4[nH]ccc34)cc2)n1", "note": "[Example 556, N-(4-(4-(2-((1-methyl-1H-pyrazol-3-yl)amino)-2-oxoethyl)phenyl)-1H-pyrrolo[2,3-b]pyridin-6-yl)cyclopropanecarboxamide]", "pIC50": "6.70 to 7.70"}]}]}
